Data: ChEMBL document CHEMBL1201862, “PubChem BioAssay data set” (2004)
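Each compound was tested at five concentrations against cells in 96-well plates for 48 hours. Abbreviation: GI50, concentration required for 50% inhibition of growth.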 Active and inactive are the calls of the source. Rule as the data show it: active = GI50 up to about 1.1 µM and inactive = higher.

Key:
Assay in all cases: growth of human tumour cells (NCI), 48 h
[1] = test system: 786-0
[2] = test system: A549
[3] = test system: ACHN
[4] = test system: CAKI-1
[5] = test system: COLO 205
[6] = test system: DLD-1
[7] = test system: DMS-114
[8] = test system: DMS-273
[9] = test system: EKVX
[10] = test system: HCC 2998
[11] = test system: HCT-15
[12] = test system: HL-60
[13] = test system: HOP-18
[14] = test system: HOP-62
[15] = test system: HOP-92
[16] = test system: HT-29
[17] = test system: IGROV-1
[18] = test system: K562
[19] = test system: KM-20L2
[20] = test system: LOX IMVI
[21] = test system: M14
[22] = test system: M19-MEL
[23] = test system: MOLT-4
[24] = test system: Malme-3M
[25] = test system: NCI-H23
[26] = test system: NCI-H460
[27] = test system: OVCAR-3
[28] = test system: OVCAR-4
[29] = test system: OVCAR-8
[30] = test system: RPMI-8226
[31] = test system: RXF 393
[32] = test system: SF-268
[33] = test system: SF-295
[34] = test system: SK-MEL-28
[35] = test system: SK-OV-3
[36] = test system: SN12C
[37] = test system: SNB-75
[38] = test system: SNB-78
[39] = test system: SW-620
[40] = test system: TK-10
[41] = test system: U-251
[42] = test system: UACC-62
[43] = test system: UO-31
[44] = test system: XF498
[45] = test system: A498
[46] = test system: BT-549
[47] = test system: CCRF-CEM
[48] = test system: DU-145
[49] = test system: HCT-116
[50] = test system: Hs-578T
[51] = test system: KM12
[52] = test system: LXFL 529
[53] = test system: MCF7
[54] = test system: MDA-MB-231
[55] = test system: MDA-MB-435
[56] = test system: NCI-H226
[57] = test system: NCI-H522
[58] = test system: NCI/ADR-RES
[59] = test system: OVCAR-5
[60] = test system: PC-3
[61] = test system: SF-539
[62] = test system: SK-MEL-2
[63] = test system: SK-MEL-5
[64] = test system: SNB-19
[65] = test system: SR
[66] = test system: T47D
[67] = test system: UACC-257

## CC(=O)Oc1cc(OC(C)=O)c2cc3c(cc2c1OC(C)=O)C(=O)C1(CCCC1)C3=O
[1]
  GI50: 17200 nM (inactive)
[2]
  GI50: 19100 nM (inactive)
[3]
  GI50: 17700 nM (inactive)
[4]
  GI50: 11400 nM (inactive)
[5]
  GI50: 17400 nM (inactive)
[6]
  GI50: 20000 nM (inactive)
[7]
  GI50: 16500 nM (inactive)
[8]
  GI50: 18200 nM (inactive)
[9]
  GI50: 20000 nM (inactive)
[10]
  GI50: 21700 nM (inactive)
[11]
  GI50: 17800 nM
[12]
  GI50: 20800 nM (inactive)
[13]
  GI50: 22800 nM (inactive)
[14]
  GI50: 21400 nM (inactive)
[15]
  GI50: 15100 nM (inactive)
[16]
  GI50: 12200 nM (inactive)
[17]
  GI50: 17200 nM (inactive)
[18]
  GI50: 14700 nM (inactive)
[19]
  GI50: 22100 nM (inactive)
[20]
  GI50: 14300 nM (inactive)
[21]
  GI50: 17700 nM (inactive)
[22]
  GI50: 17200 nM (inactive)
[23]
  GI50: 3180 nM (inactive)
[24]
  GI50: 17900 nM (inactive)
[25]
  GI50: 17700 nM (inactive)
[26]
  GI50: 17500 nM (inactive)
[27]
  GI50: 19300 nM (inactive)
[28]
  GI50: 18600 nM (inactive)
[29]
  GI50: 16400 nM (inactive)
[30]
  GI50: 2290 nM (inactive)
[31]
  GI50: 17200 nM (inactive)
[32]
  GI50: 22500 nM (inactive)
[33]
  GI50: 16300 nM (inactive)
[34]
  GI50: 15600 nM (inactive)
[35]
  GI50: 17600 nM (inactive)
[36]
  GI50: 17700 nM (inactive)
[37]
  GI50: 14200 nM (inactive)
[38]
  GI50: 22900 nM (inactive)
[39]
  GI50: 16300 nM (inactive)
[40]
  GI50: 17200 nM (inactive)
[41]
  GI50: 18100 nM (inactive)
[42]
  GI50: 15800 nM (inactive)
[43]
  GI50: 16300 nM (inactive)
[44]
  GI50: 16400 nM (inactive)

## O=C(c1ccccc1)c1nc2ccc(Cl)cc2cc1C(Br)Br
[1]
  GI50: 170 nM (active)
[45]
  GI50: 1790 nM (inactive)
[2]
  GI50: 1440 nM (inactive)
[3]
  GI50: 263 nM (active)
[46]
  GI50: 144 nM (active)
[4]
  GI50: 552 nM (active)
[47]
  GI50: 395 nM (active)
[5]
  GI50: 344 nM (active)
[6]
  GI50: 203 nM (active)
[7]
  GI50: 1790 nM (inactive)
[8]
  GI50: 286 nM (active)
[48]
  GI50: 1030 nM (active)
[9]
  GI50: 493 nM (active)
[10]
  GI50: 316 nM (active)
[49]
  GI50: 108 nM (active)
[11]
  GI50: 310 nM
[12]
  GI50: 222 nM (active)
[13]
  GI50: 344 nM (active)
[14]
  GI50: 641 nM (active)
[15]
  GI50: 527 nM (active)
[16]
  GI50: 197 nM (active)
[50]
  GI50: 193 nM (active)
[17]
  GI50: 735 nM (active)
[18]
  GI50: 244 nM (active)
[19]
  GI50: 250 nM (active)
[51]
  GI50: 340 nM (active)
[20]
  GI50: 1470 nM (inactive)
[52]
  GI50: 216 nM (active)
[21]
  GI50: 1720 nM (inactive)
[22]
  GI50: 418 nM (active)
[53]
  GI50: 314 nM (active)
[54]
  GI50: 68.5 nM (active)
[55]
  GI50: 282 nM (active)
[23]
  GI50: 678 nM (active)
[24]
  GI50: 1600 nM (inactive)
[56]
  GI50: 1680 nM (inactive)
[25]
  GI50: 304 nM (active)
[26]
  GI50: 281 nM (active)
[57]
  GI50: 1820 nM (inactive)
[58]
  GI50: 161 nM (active)
[27]
  GI50: 326 nM (active)
[28]
  GI50: 407 nM (active)
[59]
  GI50: 519 nM (active)
[29]
  GI50: 242 nM (active)
[60]
  GI50: 225 nM (active)
[30]
  GI50: 229 nM (active)
[31]
  GI50: 216 nM (active)
[32]
  GI50: 384 nM (active)
[33]
  GI50: 261 nM (active)
[61]
  GI50: 246 nM (active)
[34]
  GI50: 261 nM (active)
[62]
  GI50: 450 nM (active)
[63]
  GI50: 692 nM (active)
[35]
  GI50: 605 nM (active)
[36]
  GI50: 252 nM (active)
[64]
  GI50: 425 nM (active)
[37]
  GI50: 278 nM (active)
[65]
  GI50: 1680 nM (inactive)
[39]
  GI50: 185 nM (active)
[66]
  GI50: 200 nM (active)
[40]
  GI50: 687 nM (active)
[41]
  GI50: 192 nM (active)
[67]
  GI50: 525 nM (active)
[42]
  GI50: 569 nM (active)
[43]
  GI50: 385 nM (active)
[44]
  GI50: 933 nM (active)
